Values quoted from earlier work, collected in article PMC9788431, “Combination of Docking-Based and Pharmacophore-Based Virtual Screening Identifies Novel Agonists That Target the Urotensin Receptor” (Molecules, 2022).
Values joined by “and” are separate entries in the source; they are usually repeats but may differ in a detail not shown here. Equal entries are not always repeated. Non-standard residues stand in square brackets, D forms with d. Residues, ends and D or L forms follow the SMILES beside them.

Target: T1, UT receptor (Homo sapiens, UniProt Q9UKP6)
T1 construct: SNAP-tag; expressed in transfected cells; host or cells: 293A8 (HEK293A stably transfected with the UT receptor); inferred, the calcium-assay paragraph names no cells
T1 sequence (Q9UKP6 1-389): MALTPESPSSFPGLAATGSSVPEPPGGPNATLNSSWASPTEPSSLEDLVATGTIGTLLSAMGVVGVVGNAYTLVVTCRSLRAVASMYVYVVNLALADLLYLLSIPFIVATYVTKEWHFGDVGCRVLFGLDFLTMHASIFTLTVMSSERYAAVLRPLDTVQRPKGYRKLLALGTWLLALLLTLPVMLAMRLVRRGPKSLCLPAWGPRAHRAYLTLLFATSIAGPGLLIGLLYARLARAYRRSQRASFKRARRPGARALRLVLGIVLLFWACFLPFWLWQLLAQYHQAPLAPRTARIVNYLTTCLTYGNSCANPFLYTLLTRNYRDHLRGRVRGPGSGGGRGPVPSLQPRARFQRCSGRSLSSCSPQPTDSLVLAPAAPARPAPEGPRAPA
Details: agonist; Table S1 benchmarking ligands; ref ChEMBL database and others; cited from earlier work

SMILES | EC50
CN(C)CCC(NC(=O)c1ccc(-c2ccccc2)cc1)c1ccc2ccccc2c1 (centres unmarked) [CHEMBL574527] | 0.12 µM
Cc1ccc(C(CCN(C)C)NC(=O)c2ccc(-c3ccc(Cl)cc3)cc2)cc1 (centres unmarked) [CHEMBL572883] | 0.126 µM
CN(C)CCC(OC(=O)Nc1ccc(Oc2ccccc2)cc1)c1ccc(Cl)cc1 (centres unmarked) [CHEMBL383326] | 0.191 µM
O=C(NC(CCN1CCCCC1)c1ccc(Cl)cc1)c1ccc(-c2ccccc2)cc1 (centres unmarked) [CHEMBL572467] | 0.661 µM
Cc1ccc(C(CCN(C)C)NC(=O)c2ccc(-c3ccc4ccccc4c3)cc2)cc1 (centres unmarked) [CHEMBL575630] | 0.813 µM
CN(C)CCC(NC(=O)Nc1ccc(Oc2ccccc2)cc1)c1ccc(Cl)cc1 (centres unmarked) [CHEMBL383698] | 0.11 µM
CN(C)CCC(NC(=O)/C=C/c1ccc(C(F)(F)F)cc1)c1ccc2ccccc2c1 (centres unmarked) [CHEMBL229713] | 0.135 µM
CN(C)CCC(NC(=O)c1cccc(-c2ccc(Cl)cc2)c1)c1ccc(Cl)cc1 (centres unmarked) [CHEMBL582835] | 0.437 µM
C[C@@H](O)[C@H](NC(=O)[C@@H](N)CCC(=O)O)C(=O)N1CCC[C@@H]1C(=O)N[C@@H](CC(=O)O)C(=O)N[C@@H](CS)C(=O)N[C@@H](Cc1ccccc1)C(=O)N[C@@H](Cc1c[nH]c2ccccc12)C(=O)N[C@@H](CCCCN)C(=O)N[C@@H](Cc1ccc(O)cc1)C(=O)N[C@@H](CS)C(=O)O [CHEMBL385616] (H-ET[dP]DCFWKYC-OH) | 0.0018 µM
CN(C)CCC(NC(=O)c1ccc(-c2ccc3ccccc3c2)cc1)c1ccc(Cl)cc1 (centres unmarked) [CHEMBL572391] | 0.309 µM
COc1ccc(/C=C/C2=NN(CCCCN)C(=O)N(Cc3ccc(-c4ccccc4)cc3)c3ccccc32)cc1 [CHEMBL4071437] | 0.00708 µM and 0.00851 µM
Cc1ccc(C(CCN(C)C)NC(=O)c2cccc(-c3ccc(Cl)cc3)c2)cc1 (centres unmarked) [CHEMBL574731] | 0.646 µM
Cc1ccc(C(CCN(C)C)NC(=O)/C=C/c2ccc(C(F)(F)F)cc2)cc1 (centres unmarked) [CHEMBL229923] | 0.437 µM
NCCCC[C@@H]1NC(=O)[C@H](Cc2c[nH]c3ccccc23)NC(=O)[C@H](CO)NC(=O)CNC(=O)[C@@H]2CCCN2C(=O)[C@H](Cc2c[nH]c3ccccc23)NC1=O [CHEMBL608099] (cyclo(GSWKWP)) | 0.0167 µM
CN(C)CCC(NC(=O)C#Cc1ccccc1)c1ccc(Cl)cc1 (centres unmarked) [CHEMBL228471] | 0.398 µM
CO[C@@H](C(=O)N[C@@H](CCN(C)C)c1ccc2ccccc2c1)c1ccccc1 [CHEMBL572454] | 0.741 µM
NCCCC[C@@H]1NC(=O)[C@H](Cc2c[nH]c3ccccc23)NC(=O)[C@H](Cc2ccccc2)NC(=O)CNC(=O)[C@@H]2CCCN2C(=O)[C@H](Cc2ccc(O)cc2)NC1=O [CHEMBL607809] (cyclo(FWKYPG)) | 0.00694 µM
CC(C)[C@H](NC(=O)[C@H](CS)NC(=O)[C@H](Cc1ccc(O)cc1)NC(=O)[C@H](CCCCN)NC(=O)[C@@H](Cc1c[nH]c2ccccc12)NC(=O)[C@H](Cc1ccccc1)NC(=O)[C@H](CS)NC(=O)[C@H](CC(=O)O)NC(=O)[C@H]1CCCN1C(=O)[C@@H](NC(=O)[C@@H](N)CCC(=O)O)[C@@H](C)O)C(=O)O [CHEMBL385962] | 0.0038 µM
CN(C)CCC(NC(=O)Nc1ccc(C(C)(C)C)cc1)c1ccc(Cl)cc1 (centres unmarked) [CHEMBL205681] | 0.275 µM
Cc1cc2c(cc1C)C(=O)OC(CCN(C)C)(c1ccc3ccccc3c1)C2 (centres unmarked) [CHEMBL1173399] | 0.148 µM
NCCCN1N=C(CCc2nc3ccccc3s2)c2ccccc2N(Cc2ccc3ccccc3c2)C1=O [CHEMBL4076150] | 0.00617 µM and 0.0107 µM
CC(C)[C@H](NC(=O)[C@H](CS)NC(=O)[C@H](Cc1ccc(O)cc1)NC(=O)[C@H](CCCCN)NC(=O)[C@H](Cc1c[nH]c2ccccc12)NC(=O)[C@H](Cc1ccccc1)NC(=O)[C@H](CS)NC(=O)[C@H](CC(=O)O)NC(=O)[C@H]1CCCN1C(=O)[C@H](C)NC(=O)[C@@H](N)CCC(=O)O)C(=O)O [CHEMBL2372902] (H-EA[dP]DCFWKYCV-OH) | 0.0033 µM
COc1ccc(/C=C/C(=O)NC(CCN(C)C)c2ccc(Cl)cc2)cc1 (centres unmarked) [CHEMBL387661] | 0.513 µM
CC(C)[C@H](NC(=O)[C@H](CS)NC(=O)[C@H](Cc1ccc(O)cc1)NC(=O)[C@H](CCCCN)NC(=O)[C@H](Cc1c[nH]c2ccccc12)NC(=O)[C@H](C)NC(=O)[C@H](CS)NC(=O)[C@H](CC(=O)O)NC(=O)[C@H]1CCCN1C(=O)[C@@H](NC(=O)[C@@H](N)CCC(=O)O)[C@@H](C)O)C(=O)O [CHEMBL2372901] (H-ET[dP]DCAWKYCV-OH) | 0.0057 µM
NCCCC[C@@H]1NC(=O)[C@H](Cc2c[nH]c3ccccc23)NC(=O)[C@H](CO)NC(=O)CNC(=O)[C@@H]2CCCN2C(=O)[C@H](Cc2ccccc2)NC1=O [CHEMBL593663] (cyclo(FPGSWK)) | 0.0101 µM

SMILES | EC50
CN(C)CCC(NC(=O)/C=C/c1ccc(C(F)(F)F)cc1)c1ccc(Cl)cc1 (centres unmarked) [CHEMBL228470] | 0.129 µM
NCCCC[C@@H]1NC(=O)[C@H](Cc2c[nH]c3ccccc23)NC(=O)[C@H](Cc2ccc(O)cc2)NC(=O)CNC(=O)[C@@H]2CCCN2C(=O)[C@H](Cc2ccccc2)NC1=O [CHEMBL608097] (cyclo(FPGYWK)) | 0.0757 µM
CN(C)CCC(OC(=O)c1ccc(-c2ccccc2)cc1)c1ccc(Cl)cc1 (centres unmarked) [CHEMBL205991] | 0.525 µM
CC(C)[C@H](NC(=O)[C@H](CS)NC(=O)[C@H](Cc1ccc(O)cc1)NC(=O)[C@H](CCCCN)NC(=O)[C@H](Cc1c[nH]c2ccccc12)NC(=O)[C@H](Cc1ccccc1)NC(=O)[C@H](CS)NC(=O)[C@H](CC(=O)O)NC(=O)[C@H]1CCCN1)C(=O)O [CHEMBL216349] (H-[dP]DCFWKYCV-OH) | 0.0036 µM
C[C@H](NC(=O)[C@H](CS)NC(=O)[C@H](Cc1ccc(O)cc1)NC(=O)[C@H](CCCCN)NC(=O)[C@H](Cc1c[nH]c2ccccc12)NC(=O)[C@H](Cc1ccccc1)NC(=O)[C@H](CS)NC(=O)[C@H](CC(=O)O)NC(=O)[C@H]1CCCN1C(=O)[C@@H](NC(=O)[C@@H](N)CCC(=O)O)[C@@H](C)O)C(=O)O [CHEMBL2372907] (H-ET[dP]DCFWKYCA-OH) | 0.0032 µM
CN(C)CCC1(c2ccc(Cl)c(Cl)c2)Cc2ccccc2C(=O)O1 (centres unmarked) [CHEMBL1172763] | 0.676 µM
COc1ccc(-c2ccc(C(=O)NC(CCN(C)C)c3ccc(C)cc3)cc2)cc1 (centres unmarked) [CHEMBL575629] | 0.347 µM
NCCCC[C@@H]1NC(=O)[C@H](Cc2c[nH]c3ccccc23)NC(=O)[C@H](CO)NC(=O)CNC(=O)[C@@H]2CCCN2C(=O)[C@H](Cc2ccc(O)cc2)NC1=O [CHEMBL593612] (cyclo(GSWKYP)) | 0.00851 µM
CC(C)[C@H](NC(=O)[C@H](CS)NC(=O)[C@H](Cc1ccc(O)cc1)NC(=O)[C@H](CCCCN)NC(=O)[C@H](Cc1c[nH]c2ccccc12)NC(=O)[C@H](Cc1ccccc1)NC(=O)[C@H](CS)NC(=O)[C@H](CC(=O)O)NC(=O)[C@H]1CCCN1C(=O)[C@@H](N)[C@@H](C)O)C(=O)O [CHEMBL427632] (H-T[dP]DCFWKYCV-OH) | 0.0024 µM
CN(C)CCC(NC(=O)c1ccc(C(F)(F)F)cc1)c1ccc(Cl)cc1 (centres unmarked) [CHEMBL204988] | 0.0776 µM
CC(C)[C@H](NC(=O)[C@H](CS)NC(=O)[C@H](Cc1ccc(O)cc1)NC(=O)[C@H](CCCCN)NC(=O)[C@H](Cc1c[nH]c2ccccc12)NC(=O)[C@H](Cc1ccccc1)NC(=O)[C@H](CS)NC(=O)[C@H](C)NC(=O)[C@H]1CCCN1C(=O)[C@@H](NC(=O)[C@@H](N)CCC(=O)O)[C@@H](C)O)C(=O)O [CHEMBL2372896] | 0.0027 µM
Cc1cc2c(cc1C)CC(CCN(C)C)(c1ccc(Cl)cc1)OC2 (centres unmarked) [CHEMBL1173492] | 0.692 µM
CC(C)[C@H](NC(=O)[C@H](CS)NC(=O)[C@H](Cc1ccc(O)cc1)NC(=O)[C@H](CCCCN)NC(=O)[C@H](Cc1c[nH]c2ccccc12)NC(=O)[C@H](Cc1ccccc1)NC(=O)[C@@H](N)CS)C(=O)O [CHEMBL53181] (H-CFWKYCV-OH) | 0.0018 µM
Cc1cc2c(cc1C)C(=O)OC(CCN(C)C)(c1ccc(Cl)cc1)C2 (centres unmarked) [CHEMBL380346] | 0.135 µM
NCCCC[C@H](NC(=O)[C@H](Cc1c[nH]c2ccccc12)NC(=O)[C@H](Cc1ccccc1)NC(=O)[C@@H](N)CS)C(=O)N[C@@H](Cc1ccc(O)cc1)C(=O)N[C@@H](CS)C(N)=O [CHEMBL298803] (H-CFWKYC-NH2) | 0.0023 µM
CN(C)CCC(NC(=O)c1cccc(-c2ccccc2)c1)c1ccc2ccccc2c1 (centres unmarked) [CHEMBL575819] | 0.537 µM
CN(C)CCC(NC(=O)/C=C/c1ccccc1)c1ccc2ccccc2c1 (centres unmarked) [CHEMBL387694] | 0.589 µM
CN(C)CCC(NC(=O)CCc1ccccc1)c1ccc2ccccc2c1 (centres unmarked) [CHEMBL229709] | 0.603 µM
CN(C)CCC(NC(=O)Nc1ccc2ccccc2c1)c1ccc(Cl)cc1 (centres unmarked) [CHEMBL206551] | 0.288 µM
NCCCC[C@@H]1NC(=O)[C@H](Cc2c[nH]c3ccccc23)NC(=O)[C@H](Cc2ccccc2)NC(=O)CNC(=O)[C@@H]2CCCN2C(=O)[C@H](Cc2ccccc2)NC1=O [CHEMBL607811] (cyclo(FPGFWK)) | 0.0132 µM
COc1ccc(-c2ccc(C(=O)NC(CCN(C)C)c3ccc(Cl)cc3)cc2)cc1 (centres unmarked) [CHEMBL573569] | 0.0741 µM
Cc1cc(C)c(C(=O)OC(CCN(C)C)c2ccc(Cl)cc2)cc1C (centres unmarked) [CHEMBL206832] | 0.468 µM
Cc1cc2c(cc1C)C(=O)OC(CCN(C)C)(c1ccc(Cl)c(Cl)c1)C2 (centres unmarked) [CHEMBL1171808] | 0.0513 µM
CC(C)[C@H](NC(=O)[C@H](CS)NC(=O)[C@H](Cc1ccc(O)cc1)NC(=O)[C@H](CCCCN)NC(=O)[C@H](Cc1c[nH]c2ccccc12)NC(=O)[C@H](Cc1ccccc1)NC(=O)[C@H](C)NC(=O)[C@H](CC(=O)O)NC(=O)[C@H]1CCCN1C(=O)[C@@H](NC(=O)[C@@H](N)CCC(=O)O)[C@@H](C)O)C(=O)O [CHEMBL2372895] (H-ET[dP]DAFWKYCV-OH) | 0.233 µM
CN(C)CC[C@H](NC(=O)c1ccc2ccccc2c1)c1ccc(Cl)cc1 [CHEMBL207783] | 0.407 µM
